The term melting point denotes the temperature, or range, at which the solid turns liquid.

In turn, `CN(C)Cc1cccc(Cn2ccc(OCc3ccc(F)cc3F)c(Br)c2=O)c1` [Example 76, 3-bromo-4-(2,4-difluorobenzyloxy)-1-[(3-dimethylaminomethyl)benzyl]-1H-pyridin-2-one] showed a melting point of 103 to 107 °C.

`Cc1c(OCc2ccc(F)cc2F)ccn(Cc2cccc(F)c2)c1=O` [Example 129, 4-(2,4-Difluorobenzyloxy)-1-(3-fluorobenzyl)-3-methyl-1H-pyridin-2-one] yielded a melting point of 127 to 129 °C.

With `Cc1c(OCc2ccc(F)cc2F)cc(C)n(C2CCCCC2)c1=O` [Example 132, 1-cyclohexyl-4-(2,4-difluorobenzyloxy)-3,6-dimethyl-1H-pyridin-2-one], the melting point lay within 118 to 120 °C.

`CN(C)Cc1ccc(Cn2ccc(OCc3ccc(F)cc3F)c(Br)c2=O)cc1` [Example 74, 3-bromo-4-(2,4-difluorobenzyloxy)-1-[(4-dimethylaminomethyl)benzyl]-1H-pyridin-2-one] registered a melting point of 111 to 113 °C.

Regarding `O=c1c(Br)c(OCc2ccccc2)ccn1CCc1cccs1` [Example 30, 4-(benzyloxy)-3-bromo-1-(2-thien-2-ylethyl)pyridin-2(1H)-one], the melting point was in the range of 128 to 129.5 °C.

Turning to `NC(=O)Cc1cccc(Cn2ccc(OCc3ccc(F)cc3F)c(Br)c2=O)c1` [Example 128, 2-{3-[3-Bromo-4-(2,4-difluorobenzyloxy)-2-oxo-2H-pyridin-1-ylmethyl]phenyl}acetamide], the melting point is 164 to 167 °C.

In turn, `CC(C)(C)OC(=O)NCc1cccc(Cn2ccc(OCc3ccc(F)cc3F)c(Br)c2=O)c1` [Example 78, {3-[3-bromo-4-(2,4-difluorobenzyloxy)-2-oxo-2H-pyridin-1-ylmethyl]benzyl}carbamic Acid Tert-Butyl Ester] had a melting point of 80 to 84 °C.

The molecule `O=c1c(Cl)c(OCc2ccc(F)cc2F)ccn1Cc1cccc2c1CCNC2` [Example 85, 3-chloro-4-(2,4-difluorobenzyloxy)-1-(1,2,3,4-tetrahydroisoquinolin-5-ylmethyl)-1H-pyridin-2-one] showed a melting point of 180 to 184 °C.

With `NCCc1cccc(Cn2ccc(OCc3ccc(F)cc3F)c(Br)c2=O)c1.O=C(O)C(F)(F)F`, the melting point fell in the range of 70 to 74 °C.

`O=c1cc(OCc2ccccc2Cl)ccn1Cc1ccccc1` [Example 42, 1-benzyl-4-[(2-chlorobenzyl)oxy]pyridin-2(1H)-one] registered a melting point of 124.6 to 125 °C.

For the molecule `NCc1cccc(Cn2ccc(OCc3ccc(F)cc3)c(Br)c2=O)c1.O=C(O)C(F)(F)F`, the melting point is 127 to 139 °C.

Molecule `CC(C)NCc1cccc(Cn2ccc(OCc3ccc(F)cc3F)c(Br)c2=O)c1` [Example 75, 3-bromo-4-(2,4-difluorobenzyloxy)-1-[3-(isopropylaminomethyl)benzyl]-1H-pyridin-2-one] registered a melting point of 109 to 110 °C.

The molecule `Cc1ccc(COc2ccn(Cc3ccccc3)c(=O)c2Br)cc1` [Example 44, 1-benzyl-3-bromo-4-[(4-methylbenzyl)oxy]pyridin-2(1H)-one] came in with a melting point of 149 to 149.7 °C.

In the case of `N#CCc1cccc(Cn2ccc(OCc3ccc(F)cc3F)c(Br)c2=O)c1` [Example 97, {3-[3-bromo-4-(2,4-difluorobenzyloxy)-2-oxo-2H-pyridin-1-ylmethyl]-phenyl}acetonitrile], the melting point was 120 to 121 °C.

With `CC(C)(C)OC(=O)NCc1cccc(Cn2ccc(OCc3ccc(F)cc3)c(Br)c2=O)c1` [Example 70, {3-[3-bromo-4-(4-fluorobenzyloxy)-2-oxo-2H-pyridin-1-ylmethyl]benzyl}carbamic Acid Tert-Butyl Ester], the melting point is 136 to 138 °C.

Regarding `O=c1cc(OCc2c(Cl)cccc2Cl)ccn1Cc1ccccc1` [Example 40, 1-benzyl-4-[2,6-(dichlorobenzyl)oxy]pyridin-2(1H)-one], the melting point was in the range of 151.6 to 152 °C.

`O=c1c(Br)c(OCc2ccc(F)c(F)c2)ccn1Cc1cccc(F)c1` [Example 112, 3-bromo-4-(3,4-difluorobenzyloxy)-1-(3-fluorobenzyl)-1H-pyridin-2-one] gave a melting point of 172 to 174 °C.

In turn, `O=C(O)C(F)(F)F.O=c1c(Cl)c(OCc2ccc(F)cc2F)ccn1Cc1cccc2cnccc12` displayed a melting point of 235 to 238 °C.

With `COC(=O)c1ccccc1Cn1ccc(OCc2ccc(F)cc2)c(Br)c1=O` [Example 72, methyl 2-[3-Bromo-4-(4-fluorobenzyloxy)-2-oxo-2H-pyridin-1-ylmethyl]benzoate], the melting point was in the range of 161 to 165 °C.

On to `COC(=O)c1cccc(Cn2ccc(OCc3ccc(F)cc3F)c(Cl)c2=O)c1F` [Example 105, Methyl 3-[3-chloro-4-(2,4-difluorobenzyloxy)-2-oxo-2H-pyridin-1-ylmethyl]-2-fluoro-benzoate], for which the melting point lay within 171 to 174 °C.

In turn, `O=c1c(I)c(OCc2ccc(F)cc2F)ccn1Cc1cccc(F)c1` [Example 130, 4-(2,4-Difluorobenzyloxy)-1-(3-fluorobenzyl)-3-iodo-1H-pyridin-2-one] yielded a melting point of 164 to 167 °C.

Turning to `O=c1c(Br)c(OCc2ccccc2C(F)(F)F)ccn1Cc1ccccc1` [Example 47, 1-benzyl-3-bromo-4-{[2-(trifluoromethyl)benzyl]oxy}pyridin-2(1H)-one], the melting point was 133.2 to 133.5 °C.

Consider `NC(=NO)c1ccc(Cn2ccc(OCc3ccccc3)c(Br)c2=O)cc1` [Example 24, 4-{[4-(benzyloxy)-3-bromo-2-oxopyridin-1(2H)-yl]methyl}-N′-hydroxybenzenecarboximidamide], for which the melting point lay in the range of 210.2 to 212.2 °C.

`O=c1c(Br)c(OCc2ccc(F)cc2)ccn1CC1CC1` [Example 59, 3-bromo-1-cyclopropylmethyl-4-(4-fluorobenzyloxy)-1H-pyridin-2-one] showed a melting point of 139 to 141 °C.

`Cl.O=c1c(Br)c(OCc2ccccc2)ccn1CC1CCCNC1` (stereo not drawn) showed a melting point of 138.1 to 139.2 °C.

Regarding `N#Cc1ccccc1Cn1ccc(OCc2ccc(F)cc2F)c(Br)c1=O` [Example 98, 2-[3-bromo-4-(2,4-difluorobenzyloxy)-2-oxo-2H-pyridin-1-ylmethyl]benzonitrile], the melting point was 194 to 197 °C.

Regarding `NCc1cccc(Cn2ccc(OCc3ccc(F)cc3F)c(Br)c2=O)c1F` [Example 104, 1-(3-aminomethyl-2-fluorobenzyl)-3-bromo-4-(2,4-difluorobenzyloxy)-1H-pyridin-2-one], the melting point is 160 to 163 °C.

In turn, `CC(C)NCc1ccc(Cn2ccc(OCc3ccc(F)cc3F)c(Cl)c2=O)cc1` [Example 80, 3-chloro-4-(2,4-difluorobenzyloxy)-1-[4-(isopropylaminomethyl)benzyl]-1H-pyridin-2-one] gave a melting point of 146 to 151 °C.

Consider `O=c1c(Br)c(OCc2ccccc2Cl)ccn1Cc1ccccc1` [Example 43, 1-benzyl-3-bromo-4-[(2-chlorobenzyl)oxy]pyridin-2(1H)-one], for which the melting point was 143.3 to 145.5 °C.

In the case of `Br.Cn1ccc(OCc2ccccc2)c(Br)c1=O` [Example 22, 4-(benzyloxy)-3-bromo-1-methylpyridin-2(1H)-one Hydrobromide], the melting point was in the range of 105.3 to 105.6 °C.

`CNCc1cccc(Cn2ccc(OCc3ccc(F)cc3F)c(Br)c2=O)c1` [Example 77, 3-Bromo-4-(2,4-difluorobenzyloxy)-1-[(3-methylaminomethyl)benzyl]-1H-pyridin-2-one]: the melting point fell in the range of 107 to 111 °C.

The molecule `COC(=O)c1cccc(Cn2ccc(OCc3ccc(F)cc3F)c(Br)c2=O)c1` [Example 100, Methyl 3-[3-Bromo-4-(2,4-difluorobenzyloxy)-2-oxo-2H-pyridin-1-ylmethyl]benzoate] gave a melting point of 115 to 117 °C.

`CS(=O)(=O)c1ccc(Cn2ccc(OCc3ccc(F)cc3F)c(Cl)c2=O)cc1` [Example 82, 3-chloro-4-(2,4-difluorobenzyloxy)-1-[(4-methanesulfonyl)benzyl]-1H-pyridin-2-one] gave a melting point of 223 to 225 °C.

`CCOC(=O)Cc1cccc(Cn2ccc(OCc3ccc(F)cc3F)c(Br)c2=O)c1` [Example 127, Ethyl {3-[3-Bromo-4-(2,4-difluorobenzyloxy)-2-oxo-2H-pyridin-1-ylmethyl]-phenyl}acetate]: the melting point is 95 to 98 °C.

Molecule `O=c1c(Br)c(SCc2ccccc2)ccn1Cc1ccccc1` [Example 46, 1-benzyl-4-[benzylthio]-3-bromopyridin-2(1H)-one] registered a melting point of 180.6 to 182.1 °C.

Turning to `NC(=O)Cc1ccccc1Cn1ccc(OCc2ccc(F)cc2F)c(Br)c1=O` [Example 126, 2-{2-[3-Bromo-4-(2,4-difluorobenzyloxy)-2-oxo-2H-pyridin-1-ylmethyl]-phenyl}acetamide], the melting point is 178 to 183 °C.

`O=c1cc(OCc2cccc(Cl)c2)ccn1Cc1ccccc1` [Example 45, 1-benzyl-4-[(3-chlorobenzyl)oxy]pyridin-2(1H)-one] registered a melting point of 95.5 to 95.7 °C.

Turning to `COC(=O)c1ccc(Cn2ccc(OCc3ccc(F)cc3F)c(Br)c2=O)cc1` [Example 101, Methyl 4-[3-Bromo-4-(2,4-difluorobenzyloxy)-2-oxo-2H-pyridin-1-ylmethyl]-benzoate], the melting point fell in the range of 136 to 139 °C.

Molecule `NC(=O)c1cccc(Cn2ccc(OCc3ccc(F)cc3F)c(Br)c2=O)c1` [Example 102, 3-[3-bromo-4-(2,4-difluorobenzyloxy)-2-oxo-2H-pyridin-1-ylmethyl]benzamide] yielded a melting point of 198 to 201 °C.

Molecule `Cc1ccc(Cn2ccc(OCc3ccccc3)c(Br)c2=O)cc1` [Example 2, 4-(benzyloxy)-3-bromo-1-(4-methylbenzyl)pyridin-2(1H)-one] registered a melting point of 150.4 to 151.2 °C.

As for `CS(=O)(=O)c1cccc(Cn2ccc(OCc3ccc(F)cc3F)c(Cl)c2=O)c1` [Example 81, 3-chloro-4-(2,4-difluorobenzyloxy)-1-[(3-methanesulfonyl)benzyl]-1H-pyridin-2-one], the melting point fell in the range of 155 to 157 °C.

Molecule `O=c1c(Cl)c(OCc2ccc(F)cc2F)ccn1Cc1ccc2c(c1)CCN2` [Example 88, 3-chloro-4-(2,4-difluorobenzyloxy)-1-(2,3-dihydro-1H-indol-5-ylmethyl)-1H-pyridin-2-one] had a melting point of 137 to 139 °C.

Source of the values: patent US20050176775A1, “Substituted pyridinones” (priority 2003, published 2005).
